This note sets out measurements from ChEMBL document CHEMBL1201862, “PubChem BioAssay data set” (2004).

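All cell lines were grown in 96-well plates and treated with compound for 48 hours. At the GI50, growth is halved.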 Calls of active or inactive are those of the source. No stated cut-off is given here; in the data, active = GI50 up to about 1.1 µM and inactive = higher.

What all share (experiment): inhibition of tumour cell growth, NCI panel, 48 h
Test [1] concerns OVCAR-3.
The subject of test [2] is K562.
The test system of test [3] is MCF7.
Test [4] deals with TK-10.
Test [5] relates to IGROV-1.
In test [6] the test system is NCI-H460.
For test [7], the system named is 786-0.
Test [8] concerns MDA-MB-231.
Test [9] has as its system PC-3.
Test [10] deals with CCRF-CEM.
Test [11] has as its system OVCAR-5.
In test [12] the test system is A498.
Test [13] concerns DU-145.
Test [14] concerns HCT-116.
Test [15] concerns SF-539.
Test [16] has as its system SF-268.
The subject of test [17] is Hs-578T.
Test [18] relates to UO-31.
In test [19] the test system is HT-29.
Test [20] relates to SR.

For the compound `Cn1c(=O)c2c(O)cc(N)nc2n(C)c1=O`, the GI50 in test [1], in [2], in [3], in [4], in test [5] and in test [6] was > 100 µM (inactive) throughout. Also, the GI50 in test [7], in [8], in [9], in test [10], in test [11] and in test [12] was > 100 µM (inactive) in each case. The GI50 in [13], in test [14], in test [15], in [16], in test [17] and in test [18] was > 100 µM (inactive) each time. In [19], the GI50 is > 100 µM (inactive).
Regarding `Nc1ccc(Oc2ccc(C34CC5CC(C3)CC(c3ccc(Oc6ccc(N)c(O)c6)cc3)(C5)C4)cc2)cc1O`, the GI50 in test [1] was 2.03 µM (inactive); in test [2], 3.3 µM (inactive); in test [3] it was 2.49 µM (inactive); in [4], 3.3 µM (inactive); in test [5] it was 1.5 µM (inactive); in test [6], 1.75 µM (inactive). Besides, the GI50 in test [7] is 4.36 µM (inactive); in [8], 1.57 µM (inactive); in test [9], 1.75 µM (inactive); in [11] it was 2.05 µM (inactive); in [12], 7.66 µM (inactive); in test [13], 1.71 µM (inactive). In addition, the GI50 is 1.39 µM (inactive) in test [14]; 0.424 µM (active) in test [20]; 2.13 µM (inactive) in test [15]; 1.35 µM (inactive) in test [16]; 2.02 µM (inactive) in test [17]; 1.77 µM (inactive) in test [18]. In addition, the GI50 in [19] is 2.05 µM (inactive).
As for `S=C(Nc1ccc(Cl)cc1)SC1CCCCC1`, the GI50 is 21.4 µM (inactive) in [1]; 36.1 µM (inactive) in test [2]; 19 µM (inactive) in test [3]; 40.6 µM (inactive) in test [4]; 21.2 µM (inactive) in test [5]; 28.4 µM (inactive) in test [6]. Moreover, the GI50 in [7] was 36.6 µM (inactive); in [8], 29.4 µM (inactive); in test [9], 35.7 µM (inactive); in [10] it was 33.7 µM (inactive); in test [11], 17.5 µM (inactive); in test [13], 40.9 µM (inactive). For the same compound, the GI50 in [14] was 25.6 µM (inactive); in test [20] it was 32.6 µM (inactive); in test [15], 23.1 µM (inactive); in [16], 27 µM (inactive); in [17], 31.8 µM (inactive); in [18], 27 µM (inactive). Besides, the GI50 in [19] is 20.8 µM (inactive).
Consider `CC1CCc2sc3nc(S)n(-c4ccccc4)c(=O)c3c2C1` (configuration not stated), for which the GI50 in [1] was 39.6 µM (inactive); in [2], > 100 µM (inactive); in test [3] it was 39 µM (inactive); in test [4], 57.8 µM (inactive); in [5], 47.4 µM (inactive); in [6], 34.4 µM (inactive). Besides, the GI50 in test [7] is 62.7 µM (inactive); in test [8] it was 53.8 µM (inactive); in test [9], 33.3 µM (inactive); in test [11] it was 86.9 µM (inactive); in [13], 63.4 µM (inactive); in [14], > 100 µM (inactive). The GI50 in test [20] was 33.4 µM (inactive); in test [16], 85.7 µM (inactive); in test [17] it was 61.1 µM (inactive); in test [18] it was 15.1 µM (inactive); in test [19], 39.6 µM (inactive).
`COc1ccc(Nc2nc3ccccc3nc2-c2cccs2)cc1OC`: the GI50 in [1], in test [2], in test [3], in test [4], in test [5] and in test [6] was > 10 µM (inactive) throughout. Besides, the GI50 is > 10 µM (inactive) in [7]; > 10 µM (inactive) in test [8]; 9.35 µM (inactive) in test [9]; > 10 µM (inactive) in [10]; > 10 µM (inactive) in [11]; > 10 µM (inactive) in test [13]. Moreover, the GI50 in test [14] was > 10 µM (inactive); in test [20], 5.89 µM (inactive); in [15], > 10 µM (inactive); in [16] it was > 10 µM (inactive); in [17] it was > 10 µM (inactive); in test [18] it was > 10 µM (inactive). In test [19], the GI50 was > 10 µM (inactive).
With `COCc1nc2c(OC)c(-c3nc4ccc(N5CCN(C)CC5)nc4[nH]3)cc(OC)c2[nH]1`, the GI50 was 15.9 µM (inactive) in test [1]; 25.4 µM (inactive) in [2]; 40.5 µM (inactive) in test [3]; 67.3 µM (inactive) in test [4]; > 100 µM (inactive) in test [5]; 35.3 µM (inactive) in test [6]. In addition, the GI50 in test [7] is 40.7 µM (inactive); in test [8], 45.8 µM (inactive); in test [9] it was 33.3 µM (inactive); in [10], 21.2 µM (inactive); in test [11] it was 40.4 µM (inactive); in [12] it was > 100 µM (inactive). Besides, the GI50 in test [13] was 29.2 µM (inactive); in test [14], 30.1 µM (inactive); in test [20] it was 32.9 µM (inactive); in [16], 77.4 µM (inactive); in test [17], > 100 µM (inactive); in test [18], 56.2 µM (inactive). Also, in test [19], the GI50 is 31 µM (inactive).
Take `Cc1nn(C(=O)c2ccc(Cl)cc2)c2c1C(/C=C/c1ccccc1)SC(=N)N2` (configuration not stated): the GI50 in test [1], in test [2], in [3], in [4], in [5] and in test [6] was > 10 µM (inactive) throughout. Moreover, the GI50 in test [7], in test [8], in test [9], in test [10], in test [11] and in test [13] was > 10 µM (inactive) in each case. For the same compound, the GI50 in test [14], in [20], in test [15], in test [16], in test [17] and in test [19] was > 10 µM (inactive) throughout.
Consider `CC(=O)NCc1nc(C#N)c(N)o1`, for which the GI50 in test [1] is > 100 µM (inactive); in test [2] it was > 100 µM (inactive); in test [3], > 100 µM (inactive); in test [4], > 100 µM (inactive); in test [5] it was 8.95 µM (inactive); in test [6], > 100 µM (inactive). Further, the GI50 in test [7], in test [8], in test [9], in [10], in [11] and in test [12] was > 100 µM (inactive) throughout. For the same compound, the GI50 in test [13], in test [14], in [15], in test [16], in [17] and in [18] was > 100 µM (inactive) throughout. Besides, the GI50 in test [19] was > 100 µM (inactive).
Consider `CCOC(=O)c1c(-c2ccccc2)[nH]c2ccc(Cl)cc2c1=O`, for which the GI50 in test [1] is 19.5 µM (inactive); in test [2] it was 28.8 µM (inactive); in test [3], 31.8 µM (inactive); in test [4] it was 42.8 µM (inactive); in [5], 29.6 µM (inactive); in [6], 30.3 µM (inactive). Besides, the GI50 in test [7] was 38.7 µM (inactive); in [8] it was 31.3 µM (inactive); in [9], 41.1 µM (inactive); in test [10], 26.4 µM (inactive); in test [11] it was > 100 µM (inactive); in test [13] it was 56 µM (inactive). Further, the GI50 in [14] is 27.2 µM (inactive); in [20], 33.3 µM (inactive); in test [15] it was 29.9 µM (inactive); in [16], 50.1 µM (inactive); in [17] it was 35.4 µM (inactive); in test [18], 29.4 µM (inactive). For the same compound, in test [19], the GI50 was 27.9 µM (inactive).
`C1CCNCC1.CN(C)c1ccc(/C=C2/NC(=S)NC2=O)cc1`: the GI50 was 43.9 µM (inactive) in [1]; 62.4 µM (inactive) in [3]; 59 µM (inactive) in test [4]; 59.6 µM (inactive) in test [5]; > 100 µM (inactive) in [7]; > 100 µM (inactive) in [8]. The GI50 was 56.4 µM (inactive) in test [9]; 24.9 µM (inactive) in test [10]; > 100 µM (inactive) in test [11]; 62.1 µM (inactive) in [13]; 23.3 µM (inactive) in [14]; 29.6 µM (inactive) in [20]. In addition, the GI50 in test [15] is 35.2 µM (inactive); in test [16], 82 µM (inactive); in test [17] it was > 100 µM (inactive); in [18], 44.5 µM (inactive); in test [19], 34.6 µM (inactive).
Consider `COc1ccc(/N=N/c2ccc3oc(=O)c(C(=O)Nc4ccccc4C)cc3c2)cc1`, for which the GI50 in test [1], in test [3], in test [4], in [5], in test [6] and in test [7] was > 10 µM (inactive) in each case. Also, the GI50 in test [8], in test [9], in [11], in test [12], in test [13] and in test [20] was > 10 µM (inactive) in each case. Also, the GI50 in [15], in test [16], in test [17], in [18] and in [19] was > 10 µM (inactive) in each case.
